Patent publication US11026441B2, “Avocado flesh and/or skin extract rich in polyphenols and cosmetic, dermatological and nutraceutical compositions comprising same” (Laboratoires Expanscience, priority 2010, dated 2021)

Assays:
Format in all cases: cell-based
[1] = test system: IL8 production by human keratinocytes (NCTC-2544 cell line); assay: Production of IL8 by PMA-stimulated keratinocytes (ELISA); conditions: 10^−7 M dexamethasone, 0.1 μg/ml PMA
Procedure: The cells were then treated with 0.1 μg/ml phorbol myristate acetate (PMA) for 24 hours, always in the presence of AV or the references.
At the end of the treatment, the quantities of interleukin 8 (IL8) and prostaglandin E2 (PGE2) secreted were measured by ELISA in the culture supernatants.
(§1) The results were analyzed statistically by a Student's t-test.

[2] = test system: laminin-5 (subunit γ2) gene expression in normal human keratinocytes; assay: Gene expression of laminin-5 (subunit γ2) in keratinocytes, real-time RT-PCR; conditions: 5 ng/ml TGFβ1; 48 hours
Procedure: (§2) Normal human keratinocytes were incubated for 48 hours in the presence of the avocado extract concentrated in polyphenols (AV) at concentrations of 0.001% and 0.005% (w/v of active material) or 5 ng/ml TGFβ1 (reference).
(§3) The gene expression of MMP9 and laminin-5 (subunit γ2) was studied by real-time RT-PCR.
(§4) The results were analyzed statistically by a one-factor ANOVA followed by a Dunnett's test: ns (not significant) p>0.05; *p<0.05; ***p<0.001.

[3] = test system: MMP9 gene expression in normal human keratinocytes; assay: Gene expression of MMP9 in keratinocytes, real-time RT-PCR; conditions: 5 ng/ml TGFβ1; 48 hours
Procedure: as §2, §3, §4

[4] = test system: PGE2 production by human keratinocytes (NCTC-2544 cell line); assay: Production of PGE2 by PMA-stimulated keratinocytes (ELISA); conditions: 10^−6 M indomethacin, 0.1 μg/ml PMA
[5] = test system: histamine release by mastocytes; assay: Release of histamine by mastocytes stimulated with substance P (ELISA); conditions: 10 nM calcium; 10 μM substance P
Procedure: The mastocytes were then stimulated with 10 μM substance P for 15 minutes. At the end of incubation, the release of histamine was quantified by ELISA.
as §1

[6] = test system: Normal human epidermal melanocytes; assay: Melanin production by melanocytes stimulated by NDP-MSH; conditions: 0.25 mM kojic acid; 10^−7 M NDP-MSH; 240 hours
Procedure: After 240 hours of incubation, melanin was extracted from the cells and quantified by spectrophotometry. The results were analyzed statistically by a Student's t-test.

**Q.** What does the source list for `C[C@@H]1C[C@H]2[C@@H]3CCC4=CC(=O)C=C[C@]4(C)[C@@]3(F)[C@@H](O)C[C@]2(C)[C@@]1(O)C(=O)CO` [Dexamethasone, dexamethasone]?
**A.** IL8 [1]: 7.4 ± 0.8 ng/mL; inhibition at 0.1 µM ([1]; Homo sapiens, NCTC-2544): 85%

**Q.** “TGFβ1: 5 ng/ml TGFβ1 (reference) in keratinocyte migration marker test” was tested. Which “Laminin-5 gene expression (relative quantity)” value [2] did it give?
**A.** 11.33

**Q.** What about the “Laminin-5 gene expression, change versus control cells” value [2] of the same molecule?
**A.** +1033% ***

**Q.** What about the “MMP9 gene expression (relative quantity)” value [3] of the same molecule?
**A.** 19.84

**Q.** What about the “MMP9 gene expression, change versus control cells” value [3] of the same molecule?
**A.** +1884% ***

**Q.** `COc1ccc2c(c1)c(CC(=O)O)c(C)n2C(=O)c1ccc(Cl)cc1` [Indomethacin, indomethacin] was tested. Which PGE2 [4] did it give?
**A.** 0.039 ± 0.0 ng/mL

**Q.** What about the inhibition at 1 µM ([4]; Homo sapiens, NCTC-2544) of the same molecule?
**A.** 100%

**Q.** Which results are given for `[Ca+2]` [Calcium, calcium]?
**A.** Histamine [5]: 21.8 ± 1.0 ng/mL; Inhibition of histamine release [5]: −85% p < 0.01

**Q.** How did the “Change in melanin versus stimulated control” value [6] turn out when `O=c1cc(CO)occ1O` [Kojic acid, kojic acid] was run?
**A.** −32% p < 0.001
